# Assay results reported in patent publication US20150225454A1, “TETRABRANCHED PEPTIDES AND ANALOGUES AS A NEW CLASS OF ANTIMICROBIALS AND THEIR PREPARATION THEREOF” (priority 2012, published 2015).
# Like-named read-outs stand apart in the source and are kept apart here. Where a SMILES comes first, the peptide text is derived from it. Bridges are numbered along the chain shown (N, C = ends). Roman numbers before positions name the chains, in order.
# What was measured:
# [1] = system: C. albicans 2672R and C. albicans 1976R; format: cell-based; conditions: two clinical isolates
# Method: The effect of 5% human serum on the activities of B4010 against two C. albicans clinical isolates was determined. The human male serum was centrifuged at 13,000 rpm for 10 mins in order to remove the lipids and the supernatant was collected. The MIC values against clinical isolates of C. albicans 2672R and C. albicans 1976R were determined both in standard medium (SD broth) as well as in standard medium containing 5% serum supernatant as before.
# [2] = SDS-PAGE pull down assay with cell wall polysaccharides; format: binding; conditions: chitin or β-D-glucan, 5.5-22 μM, 2 h, 37° C.
# Method: In another study to probe the mechanism of action, the affinity of B4010 for insoluble polysaccharides such as chitin and β-D-glucan, the major component of fungal cell walls was examined. B4010 (5.5-22 μM) was incubated with chitin (from shrimp shells) or β-D-glucan for 2 h at 37° C. The mixture was centrifuged at 10,000 g and the supernatant was analyzed by SDS-PAGE (4-20%). A control experiment without chitin/β-D-glucan was also performed to quantify peptide binding to the carbohydrate polymers.
# C. albicans (ATCC 10231) = assay: SYTOX Green (SG) uptake assay; format: cell-based
# C. albicans [3] = assay: diS-C3-5 membrane depolarisation assay; format: cell-based
# Method: Change in membrane potential of C. albicans upon addition of B4010 was monitored by the release of potential sensitive probe diS-C3-5 dye. Briefly, 1 ml of overnight grown mid-log phase Candida cells in 5 mM HEPES buffer (pH 7.0) was mixed with 10 μM diS-C3-5 dye and incubated at 37° C. for 1-2 h in a thermo shaker. 800 μL of the dye-loaded cell suspension was transferred to a stirred quartz cuvette and the change in fluorescence intensity was monitored at an emission wavelength (λem) of 670 nm (excitation wavelength, 622 nm) using a Quanta Master spectrofluorimeter (Photon Technology International, NJ, USA). The excitation and emission bandwidths were set at 1 and 2 nm, respectively. Once a constant fluorescence level was achieved, 10 μL of concentrated peptide solution in HEPES buffer was added so that the final concentration of peptide was 0.22-22 μM. The change in fluorescence intensity was monitored continuously for 1 or 2 h. To study the effects of energy poisons and ion-channel inhibitors, the additives were added prior to the addition of 5.5 μM B4010. The change in fluorescence intensity was monitored as before.
# C. albicans [4] = assay: Measurement of extracellular cations (ICP-OES); format: cell-based
# Method: Overnight cultured late logarithmic phase C. albicans was harvested by centrifugation, washed 5 times with 10 mM HEPES (pH 7.0), resuspended in the same buffer and adjusted to an OD600=0.4. To 5 ml of this suspension, B4010 (final concentration 5.5 μM) was added and incubated at 37° C. for 2 h. The mixture was centrifuged at 3,000 g and the presence of K^+, Ca^2+ and Mg^2+ in the supernatant was estimated by Perkin Elmer Dual-view Optima 5300 DV inductively coupled plasma-optical emission spectrometry (ICP-OCS Massachusetts, USA) available at CMMAC facilities (Department of Chemistry, National University of Singapore).
# [5] = Calcein release from fungal model membrane SUVs; conditions: peptide:lipid ratio 1:30 and 1:15
# Method: For the preparation of PC/PE/PI or PS/Erg SUV, the lipids were dissolved in chloroform/methanol (2:1, v/v) in a glass tube. Ergosterol was dissolved in same solvent and added to lipid mixture to make final ergosterol content of 15 wt %. The Lipid-ergosterol mixture was dried using nitrogen gas to form lipid layer. The film was hydrated in a buffer containing 20 mM PBS (pH 7), vortexed and sonicated. Each cycle of sonication (5 sec, 40° C.) is followed by freezing in liquid nitrogen and thawing on a water bath kept at 37° C. The procedure was repeated 5-6 times until an optically clear dispersion appeared. The SUV was divided into two parts. To the first part 50 mM calcein was added and incubated for 1 h. The excess calcein was removed by injecting 100 μL of the calcein-loaded SUV's into a Ultrahydrogel™ 250 (7.8 mm×300 mm) column equilibrated with 20 mM PBS (pH 7.0) and eluted isochratically at a flow rate of 1 ml/min for 1.5 column volumes. The calcein-loaded liposomes were mixed with calcein-free liposome (1:1) to adjust final liposome concentration. Peptide concentration was added to obtain 1:30 or 1:15 peptide:liposome ratio. Changes in the fluorescence signal after addition of peptide or Triton X-100 was measured on a PTI spectrofluorometer, using an excitation wavelength of 480 nm and emission wavelength of 512 nm. The Percentage calcein released at each time point was calculated using the equation: […]
# Similar protocol was followed for the preparation of PC/Cholesterol SUVs.
structure (smiles),measurement,setting,value
"CC(C)[C@H](NC(=O)[C@H](CCCCN)NC(=O)[C@H](CCCNC(=N)N)NC(=O)CNC(=O)[C@@H](N)CCCNC(=N)N)C(=O)N[C@H](C(=O)N[C@@H](CCCNC(=N)N)C(=O)N[C@@H](CCCNC(=N)N)C(=O)NCCCC[C@H](NC(=O)[C@H](CCCNC(=N)N)NC(=O)[C@H](CCCNC(=N)N)NC(=O)[C@@H](NC(=O)[C@@H](NC(=O)[C@H](CCCCN)NC(=O)[C@H](CCCNC(=N)N)NC(=O)CNC(=O)[C@@H](N)CCCNC(=N)N)C(C)C)C(C)C)C(=O)NCCCC[C@H](NC(=O)[C@H](CCCCNC(=O)[C@H](CCCNC(=N)N)NC(=O)[C@H](CCCNC(=N)N)NC(=O)[C@@H](NC(=O)[C@@H](NC(=O)[C@H](CCCCN)NC(=O)[C@H](CCCNC(=N)N)NC(=O)CNC(=O)[C@@H](N)CCCNC(=N)N)C(C)C)C(C)C)NC(=O)[C@H](CCCNC(=N)N)NC(=O)[C@H](CCCNC(=N)N)NC(=O)[C@@H](NC(=O)[C@@H](NC(=O)[C@H](CCCCN)NC(=O)[C@H](CCCNC(=N)N)NC(=O)CNC(=O)[C@@H](N)CCCNC(=N)N)C(C)C)C(C)C)C(=O)N[C@@H](CCCCN)C(=O)O)C(C)C [Peptide B4010] (I: H-RGRKVVRRKKK-OH / II: H-RGRKVVRRK / III: H-RGRKVVRR / IV: H-RGRKVVRR; amide I:9-IV:C, I:10-II:C, II:9-III:C; N-terminus and C-terminus assumed)",MIC,[1]; 5% human serum,5.5 µM
same,MIC,[1]; without serum,0.34 µM
same,affinity for cell wall polysaccharides (coprecipitation),[2],no affinity
same,SG uptake (permeation),C. albicans (ATCC 10231); 1×MIC,24%
same,cells membrane compromised,"C. albicans (ATCC 10231); 2×MIC, 10 mins",About 70%
same,dye uptake,"C. albicans (ATCC 10231); 4×MIC, within 25 mins",> 90%
same,SG uptake (permeation),C. albicans (ATCC 10231); ½×MIC,13%
same,reduction in fluorescence intensity in azide-treated cells compared to control cells,C. albicans [3]; 5 mM NaN3 before B4010,~25 fold
same,time course of depolarization,C. albicans [3]; upon addition of B4010,occurred instantaneously
same,increase in K+- and Ca2+-ions,C. albicans [4],2 fold
same,calcium concentration in supernatant,"C. albicans [4]; 5.5 μM, 2 h",5.8 ± 1.3 µM
same,levels of Na+ and Mg2+ ions,"C. albicans [4]; 5.5 μM, 2 h",no significant changes
same,potassium concentration in supernatant,"C. albicans [4]; 5.5 μM, 2 h",104 ± 4.2 µM
same,calcein release,[5],about 68%
